For orientation: half-life means the time in which the quantity being followed falls by half. In general, AUC refers to the area under the concentration-time curve, a measure of exposure. The Cmax is the highest concentration seen after dosing.

Experimental findings from patent publication US20070259894A1, “Use of Atazanavir for Improving the Pharmacokinetics of Drugs Metabolized by Ugt1a1” (priority 2004, published 2007) are described below.

The nature of data set [1]: Hygroscopicity by vapor sorption analysis. The class given is physicochemical. The following applies: equilibrated at 95% RH at 25° C. How it is done:
Hygroscopicity data was obtained on a VTI Symmetrical Vapor Sorption Analyzer Model SGA-1. Data was collected at room temperature from 5-95% relative humidity and back, 5% relative humidity change per step. Equilibrium conditions were 0.01 weight percent change in 5 minutes with a maximum equilibration time of 180 minutes. […] When equilibrated back down to 5% RH, the material returned back to approximately its dry weight.

In data set [2] the test system is glucuronidation of Compound A by rat liver microsomes. Kind of data set: Inhibition by atazanavir of glucuronidation of Compound A by rat liver microsomes. The class given is biochemical. The settings on record: atazanavir at a concentration of 50 μM. How it is done:
The IC50 value of atazanavir for inhibition of glucuronidation of Compound A by human liver microsomes was determined using a pool of human liver microsomes (obtained from Xenotech LLC, Lenexa, Kans.). Compound A (as the potassium salt) was added to human liver microsomes (1.0 mg/mL) in a buffer consisting of 0.1 M potassium phosphate buffer (pH=7.4), 5 mM magnesium chloride, 10 μg/mL alamethicin, and 10 mM D-saccharic acid 1,4-lactone. The mixture of Compound A and the buffered microsomes (0.5 mL) was incubated at Compound A's Km (200 μM). UDPGA was added to the incubated sample to a concentration of 4 mM to initiate the glucuronidation reaction, which was stopped after 25 minutes (37° C.) with 2 volumes (i.e., 1 mL) of acetonitrile containing 1.5 μM of Compound B as an internal standard for the subsequent LC/MS analysis. Each of the samples was then centrifuged and the resulting supernatant was diluted 1:1 with 0.1% formic acid in water and a 10 μL aliquot was injected onto the LC/MS to determine the amount of glucuronide formation. […]
The IC50 value of atazanavir for inhibition of glucuronidation of Compound A in the presence of rat liver microsomes was determined using a procedure similar to that just described above for human liver microsomes.
(In general: Liver microsomes are a subcellular fraction often used to study metabolism.)

The nature of data set [3]: In vivo human studies: plasma PK of Compound A with and without atazanavir. Also noted: species or system healthy human male volunteers. The settings on record: for half-life: male, plasma, oral, read-out: alpha phase half-life (converted). How it is done: The protocol was a 2-period, fixed sequence study in healthy human male volunteers to examine the influence of multiple doses of atazanavir on a single dose of Compound A. In Period 1, 12 subjects received a single oral dose of 100 mg of Compound A (i.e., a tablet as described in Part B of Example 3) (N=10) or placebo (N=2). In Period 2, the same 12 subjects were administered 400 mg atazanavir once daily in an open-label fashion (capsules) for 9 days. On Day 7, the subjects were administered atazanavir in combination with a single oral dose of 100 mg of Compound A (tablet) or placebo (the same subjects received placebo in both study periods). All doses were administered following a moderate-fat meal. Plasma PK samples were collected for 72 hours following the dose of Compound A in both periods.
Sample preparation and analysis: The plasma samples were extracted using 96-well liquid-liquid extraction. Plasma extracts were injected onto an Ace C18 (50×3.0 mm, 3 μm, titanium rits) HPLC column and analyzed under isocratic conditions with a mobile phase consisting of 42.5/57.5 (v/v %) 0.1 mM EDTA in 0.1% formic acid/methanol, at a flow rate of 0.5 mL/minute. The sample extracts were ionized using an APCI interface and were monitored by MRM in the positive ionization mode. The dynamic range of the LC/MS/MS assay was 2-1000 ng/mL based on a 200 μL aliquot of human plasma.
PK Calculations: Area under the curve for a plot of plasma concentration v. time to last detectable concentration (AUC0-last), was calculated using a non-compartmental model and the Linear Up/Log Down calculation method in WinNonlin Version 4.1. Data points after Cmax were fitted to a biexponential equation (A*exp(−αt)+B*exp(−βt)) using WinNonlin v4.1, and AUC values were extrapolated to infinity according to the following equation: […]=AUC0-last+Clast/β, where Clast is the last detectable concentration and β comes from the above-noted biexponential equation. Observed maximum plasma concentration (Cmax), time of Cmax (Tmax), and plasma concentration at 12 hr post dosing (C12hr) were determined by inspection.

A short description of data set [4]: In vivo rat studies: plasma levels of Compound A with and without atazanavir. On the set-up: species or system Male Sprague-Dawley rats. The settings on record: for AUC / Cmax: male, Sprague-Dawley, plasma. How it is done: Male Sprague-Dawley rats (4 rats/group) weighing approximately 300 grams each were given orally either 0.5% methylcellulose in water (control group) or atazanavir in 0.5% methylcellulose once a day for three days. The atazanavir daily doses were 50 mg/kg and were administered in 0.5% methylcellulose at 5 mL/kg. On day four the control rats were dosed with 10 mg/kg of Compound A in the form of a potassium salt in 0.5% methylcellulose while the treatment group received atazanavir followed by an oral dose of 10 mg/kg of Compound A (as potassium salt) in 0.5% methylcellulose. Blood samples were taken from all rats in treatment and control groups at 0, 0.25, 0.5, 1, 2, 4, 6, 8, and 24 hours post dose on day 4. Plasma levels of Compound A were determined by LC-MS/MS as follows:
UDP-glucuronosyltransferase activity was determined by measuring the formation of the glucuronide of Compound A. HPLC analysis was carried out on an Agilent HP 1100 gradient system using the following parameters: column=Phenomenex Luna C18-2 (2 mm×150 mm, 5 μm); mobile phase=0.1% formic acid in water (solvent A) and 0.1% formic acid in acetonitrile (solvent B); flow rate=0.2 mL/min; procedure=the initial solvent composition of 10% B was increased to 80% B over 10 minutes, followed by holding solvent B constant at 80% for 3 minutes, and then returning to initial conditions for 6 minutes. The HPLC system was interfaced with a Finnigan TSQ Quantum tandem mass spectrometer. Mass spectral analyses were carried out using electrospray ionization (ESI) in the positive ion mode. The temperature for the ion transfer tube was 320° C. and the ESI ionizing voltage was maintained at 4.4 kV for all analyses. Tandem mass spectrometry (MS/MS) was based on collision-induced dissociation (CID) of ions entering the rf-only octapole region where argon was used as the collision gas at a pressure of 0.8 mtorr. A collision offset at −22 eV was used for MS/MS analyses. The CID transitions used were m/z=621.1→445.1 (Compound A glucuronide) and 431.2→306.1 (Compound B).

The mark [5] stands for this setting: single oral 100 mg Compound A tablet, atazanavir 400 mg once daily, moderate-fat meal.
Setting [6] is: Compound A control group, oral 10 mg/kg (K salt), no atazanavir.
Setting [7] is: oral Compound A 10 mg/kg (K salt) on day 4 with oral atazanavir 50 mg/kg once a day.

Like-named read-outs stand apart in the source and are kept apart here.

Regarding `Cc1nnc(C(=O)NC(C)(C)c2nc(C(=O)NCc3ccc(F)cc3)c([O-])c(=O)n2C)o1.[K+]`, the “weight increase (hygroscopicity)” value in data set [1] was 1.8%.

`COC(=O)N[C@H](C(=O)N[C@@H](Cc1ccccc1)[C@@H](O)CN(Cc1ccc(-c2ccccn2)cc1)NC(=O)[C@@H](NC(=O)OC)C(C)(C)C)C(C)(C)C` (relative stereo) [atazanavir, [3S-(3R*, 8′R*, 9′R*, 12R*)]-3,12-bis(1,1-dimethylethyl)-8-hydroxy-4,11-dioxo-9-(phenylmethyl)-6-[[4-(2-pyridinyl)phenylmethyl]2,5,6,10,13-pentaazatetradecanedioic] acid, dimethyl ester]: the “inhibition of the glucuronidation of Compound A” value in data set [2] was found to be 41%.

For `Cc1nnc(C(=O)NC(C)(C)c2nc(C(=O)NCc3ccc(F)cc3)c(O)c(=O)n2C)o1` [Compound A, N-(4-fluorobenzyl)-5-hydroxy-1-methyl-2-(1-methyl-1-{[(5-methyl-1,3,4-oxadiazol-2-yl)carbonyl]amino}ethyl)-6-oxo-1,6-dihydroxypyrimidine-4-carboxamide], the half-life in data set [3] (100 mg Compound A alone) is 1.1 h. Besides, in data set [3] (100 mg Compound A in the presence of atazanavir 400 mg once daily), the half-life was 1.4 h. In data set [3] (setting [5]), the “AUC0-last GMR in the presence versus absence of atazanavir” value came to 1.73, the “Cmax GMR in the presence versus absence of atazanavir” value was 1.53 and the “geometric mean ratio (GMR) 12 hr concentration in the presence versus absence of atazanavir” value is 1.96. The “increase of plasma levels of Compound A by atazanavir” value in data set [4] (atazanavir 50 mg/kg plus Compound A 10 mg/kg versus Compound A alone) is on record as “about 3 fold”. In addition, in data set [4] (setting [6]), the area under the curve (AUC) came out at 2.9 ± 0.6 µM·h and the maximum concentration (Cmax) was 2.3 ± 0.9 µM. For the same molecule, in data set [4] (setting [7]), the AUC turned out to be 9.9 ± 3.7 µM·h and the Cmax came out at 7.2 ± 6.1 µM.
